# Assay results published in US9169217B2, “Arylalkyl esters of 4-amino-6-(substituted phenyl)-picolinates and 6-amino-2-(substituted phenyl)-pyrimidinecarboxylates and their use as selective herbicides for crops” (Dow AgroSciences LLC, priority 2011, dated 2015).
# Where two headings read alike, the source gives them in different places.
# What was measured:
# Type in all cases: in vivo
# [1] = system: Cyperus difformis L. (small-flower flatsedge); assay: Postemergence foliar-applied herbicidal activity in direct seeded rice (Example 16); settings: post-emergence, 504 h, read-out: Visual Injury (%) CYPDI
# Procedure, shortened: (§1)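 Greenhouse plants at 2nd–3rd true leaf stage (10–17 d, ~29/26 °C, 14-h photoperiod) sprayed postemergence with ester forms in acetone–DMSO plus 1.25% crop oil concentrate at 187 L/ha. Visual injury scored 0–100% versus untreated plants after 3 weeks; GR50/GR80 derived by probit analysis.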
# [2] = system: Echinochloa crus-galli (L.) P.BEAUV. (barnyardgrass); assay: as above; settings: ECHCG, probit analysis; for GR50: 50% growth reduction; for GR80: 80% growth reduction; for GR90: 90% growth reduction
# Procedure, shortened: as §1
# [3] = system: Brassica sinapis (Mustard, wild); assay: Postemergence herbicidal activity in cereal crops (Example 14); settings: wheat cropping systems, postemergence spray, 35 g ae/ha, 21 DAA
# Procedure: (§2) Seeds of the desired test plant species were planted in Sun Gro Metro-Mix® 360 planting mixture, which typically has a pH of 6.0 to 6.8 and an organic matter content of about 30 percent, in plastic pots with a surface area of 84.6 cm^2. When required to ensure good germination and healthy plants, a fungicide treatment and/or other chemical or physical treatment was applied. The plants were grown for 7-36 d in a greenhouse with an approximate 14 h photoperiod which was maintained at about 18° C. during the day and 17° C. during the night. Nutrients and water were added on a regular basis and supplemental lighting was provided with overhead metal halide 1000-Watt lamps as necessary. The plants were employed for testing when they reached the second or third true leaf stage.
# (§3) Treatments consisted of esters of compounds 33, 34, 39, 40 and 42 and B, F, G and H. Compound B is methyl 4-amino-3-chloro-6-(4-cyclopropylphenyl)-5-fluoropicolinate; compound F is methyl 6-amino-2-(4-chloro-2-fluoro-3-methoxyphenyl)-5-methoxypyrimidine-4-carboxylate; compound G is methyl 4-amino-3-chloro-6-(4-chloro-2-fluoro-3-methoxyphenyl)picolinate; and compound H is methyl 4-amino-3-chloro-6-(4-chloro-2-fluoro-3-(1-fluoroethyl)phenyl)-5-fluoropicolinate. A weighed amount, determined by the highest rate to be tested, of each test compound was placed in a 25 mL glass vial and was dissolved in 8 mL of a 97:3 v/v mixture of acetone and DMSO to obtain concentrated stock solutions. […] The concentrated stock solutions obtained were diluted with 16 mL of an aqueous mixture containing acetone, water, isopropyl alcohol, DMSO, Agri-dex crop oil concentrate, and Triton® X-77 surfactant in a 64.7:26.0:6.7:2.0:0.7:0.01 v/v ratio to obtain spray solutions containing the highest application rates. Additional application rates were obtained by serial dilution of 12 mL of the high rate solution into a solution containing 4 mL of a 97:3 v/v mixture of acetone and DMSO and 8 mL of an aqueous mixture containing acetone, water, isopropyl alcohol, DMSO, Agri-dex crop oil concentrate, and Triton® X-77 surfactant in a 48.5:39.0:10.0:1.5:1.0:0.02 v/v ratio to obtain ½×, ¼×, ⅛× and 1/16× rates of the high rate. Compound requirements are based upon a 12 mL application volume at a rate of 187 L/ha. Formulated compounds were applied to the plant material with an overhead Mandel track sprayer equipped with 8002E nozzles calibrated to deliver 187 L/ha over an application area of 0.503 m^2 at a spray height of 18 inches (43 cm) above average plant canopy height. Control plants were sprayed in the same manner with the blank.
# (§4) The treated plants and control plants were placed in a greenhouse as described above and watered by sub-irrigation to prevent wash-off of the test compounds. After 20-22 d, the condition of the test plants as compared with that of the untreated plants was determined visually and scored on a scale of 0 to 100 percent where 0 corresponds to no injury and 100 corresponds to complete kill.
# [4] = system: Polygonum convolvulus (Buckwheat, wild); assay: as above; settings: wheat cropping systems, postemergence spray, 35 g ae/ha, 21 DAA
# Procedure: as §2, §3, §4
# [5] = system: Matricaria chamomilla (Mayweed, wild); assay: as above; settings: wheat cropping systems, postemergence spray, 35 g ae/ha, 21 DAA
# Procedure: as §2, §3, §4
# [6] = system: Cyperus iria L. (rice flatsedge); assay: Postemergence foliar-applied herbicidal activity in direct seeded rice (Example 16); settings: rice cropping systems, 8.75 g ae/ha, 21 DAA, may represent multiple trials
# Procedure, shortened: as §1
SMILES,Visual Injury (%) SINAR [3] [%],Visual Injury (%) POLCO [4] [%],Visual Injury (%) MATCH [5] [%],also measured
"COc1c(Cl)ccc(-c2nc(C(=O)OCc3ccccc3)c(Cl)c(N)c2F)c1F [Compound 1, benzyl 4-amino-3-chloro-6-(4-chloro-2-fluoro-3-methoxyphenyl)-5-fluoropicolinate]",–,–,–,pest or weed control at 8.75 g/ha [1]: 100%; GR50 [2]: <4.38 g ae/ha; GR80 [2]: <4.38 g ae/ha; GR90 [2]: 6.1 g ae/ha
COc1c(Cl)ccc(-c2cc(N)c(Cl)c(C(=O)OCc3ccccc3)n2)c1F [Compound 39],95,95,95,–
"Nc1c(F)c(-c2ccc(C3CC3)cc2)nc(C(=O)OCc2ccccc2)c1Cl [Compound 42, benzyl 4-amino-3-chloro-6-(4-cyclopropylphenyl)-5-fluoropicolinate]",93,95,–,Visual Injury (%) CYPIR [6]: 100%
"COC(=O)c1nc(-c2ccc(C3CC3)cc2)c(F)c(N)c1Cl [Compound B, methyl 4-amino-3-chloro-6-(4-cyclopropylphenyl)-5-fluoropicolinate]",70,62,–,Visual Injury (%) CYPIR [6]: 60%
"COC(=O)c1nc(-c2ccc(Cl)c(OC)c2F)nc(N)c1OC [Compound F, methyl 6-amino-2-(4-chloro-2-fluoro-3-methoxyphenyl)-5-methoxypyrimidine-4-carboxylate, reference compound]",–,–,10,–
"COC(=O)c1nc(-c2ccc(Cl)c(OC)c2F)cc(N)c1Cl [Compound G, methyl 4-amino-3-chloro-6-(4-chloro-2-fluoro-3-methoxyphenyl)picolinate, reference compound]",80,85,75,–
"COC(=O)c1nc(-c2ccc(Cl)c(OC)c2F)c(F)c(N)c1Cl [E, methyl 4-amino-3-chloro-6-(4-chloro-2-fluoro-3-methoxyphenyl)-5-fluoropicolinate, reference compound]",–,–,–,"pest or weed control at 8.75 g/ha ([1]; rice cropping systems, foliar-applied, 8.75 g ae/ha, 21 DAA, may represent multiple trials): 89%; GR50 [2]: 3.7 g ae/ha; GR80 [2]: 17.1 g ae/ha; GR90 [2]: 38.1 g ae/ha"
